Results from patent US11547707B2, “Carbamoyl cyclohexane derivatives for treating autism spectrum disorder” (Richter Gedeon Nyrt., priority 2019, dated 2023).
Like-named read-outs stand apart in the source and are kept apart here.

Experiments:
Fmr1 knock-out mice = conditions: Lim et al. 2014; cited from earlier work
[1] = molecular target: T1, serotonin 5-HT2B receptor (Homo sapiens, UniProt P41595); conditions: in vitro, literature; cited from earlier work
[2] = molecular target: T2, serotonin 5-HT1A receptor (Homo sapiens, UniProt P08908); conditions: in vitro, literature; cited from earlier work
T2 sequence (P08908 1-422): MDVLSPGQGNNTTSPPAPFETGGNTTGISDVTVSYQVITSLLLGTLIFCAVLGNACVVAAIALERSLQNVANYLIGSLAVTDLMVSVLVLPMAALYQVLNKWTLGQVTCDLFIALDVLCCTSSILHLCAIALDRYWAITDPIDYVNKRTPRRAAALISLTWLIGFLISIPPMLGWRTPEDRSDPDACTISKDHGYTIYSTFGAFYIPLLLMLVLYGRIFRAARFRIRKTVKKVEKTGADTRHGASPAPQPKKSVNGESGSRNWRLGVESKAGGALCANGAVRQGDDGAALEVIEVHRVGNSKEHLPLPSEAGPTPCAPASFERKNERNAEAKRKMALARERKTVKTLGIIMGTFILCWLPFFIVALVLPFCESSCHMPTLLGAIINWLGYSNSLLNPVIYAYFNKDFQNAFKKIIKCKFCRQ

[3] = molecular target: T2, serotonin 5-HT1A receptor; conditions: literature; cited from earlier work
[4] = tested on: ASD mouse models (prenatal valproate, Cntnap2 knockout, NR1 hypomorph, BTBR); conditions: several ASD mouse models, literature; cited from earlier work
[5] = tested on: prenatally valproate-treated mice; conditions: Hara et al. 2017, cited from earlier work
ASD patients = conditions: cited from earlier work
dopamine D2 receptor [6] = molecular target: T3, dopamine D2 receptor (Homo sapiens, UniProt P14416); conditions: cited from earlier work
T3 sequence (P14416 whole entry): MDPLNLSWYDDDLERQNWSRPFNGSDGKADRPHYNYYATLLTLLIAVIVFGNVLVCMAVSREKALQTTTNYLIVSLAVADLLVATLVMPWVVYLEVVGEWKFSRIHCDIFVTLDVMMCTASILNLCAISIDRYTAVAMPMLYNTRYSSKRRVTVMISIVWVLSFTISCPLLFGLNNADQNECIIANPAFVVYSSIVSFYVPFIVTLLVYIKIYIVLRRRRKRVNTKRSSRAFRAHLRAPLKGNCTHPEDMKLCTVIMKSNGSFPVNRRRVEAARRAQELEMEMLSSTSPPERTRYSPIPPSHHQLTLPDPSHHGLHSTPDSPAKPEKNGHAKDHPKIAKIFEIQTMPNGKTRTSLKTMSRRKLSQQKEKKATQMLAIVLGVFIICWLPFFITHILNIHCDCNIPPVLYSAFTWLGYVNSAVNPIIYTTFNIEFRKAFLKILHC

[7] = molecular target: T1, serotonin 5-HT2B receptor; conditions: literature; cited from earlier work
dopamine D2 receptor [8] = molecular target: T3, dopamine D2 receptor; experiment: functional activity at dopamine D2 receptor; assay type: biochemical; conditions: Compound 2, company data
[9] = molecular target: T1, serotonin 5-HT2B receptor; experiment: functional activity at serotonin 5-HT2B receptor; assay type: biochemical; conditions: Compound 2, company data
[10] = molecular target: T2, serotonin 5-HT1A receptor; conditions: Compound 2, company data
dopamine D2 receptors = conditions: in vivo; cited from earlier work

T1 sequence (P41595 whole entry): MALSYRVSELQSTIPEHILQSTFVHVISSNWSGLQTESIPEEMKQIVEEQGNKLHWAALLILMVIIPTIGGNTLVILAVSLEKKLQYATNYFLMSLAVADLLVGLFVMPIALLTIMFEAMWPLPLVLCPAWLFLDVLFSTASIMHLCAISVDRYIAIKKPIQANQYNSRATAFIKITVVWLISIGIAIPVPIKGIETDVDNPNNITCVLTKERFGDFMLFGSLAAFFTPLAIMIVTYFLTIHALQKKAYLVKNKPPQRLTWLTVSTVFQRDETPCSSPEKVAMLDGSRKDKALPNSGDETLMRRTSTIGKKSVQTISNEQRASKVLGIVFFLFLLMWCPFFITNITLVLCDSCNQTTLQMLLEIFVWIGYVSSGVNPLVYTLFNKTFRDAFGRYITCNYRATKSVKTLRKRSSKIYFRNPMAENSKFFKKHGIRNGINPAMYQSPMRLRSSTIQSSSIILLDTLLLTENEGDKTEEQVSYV

## CC(N)Cc1c[nH]c2ccc(OCc3cccs3)cc12 (centres unmarked) [BW723C86]
Fmr1 knock-out mice
  effect on cognitive abilities: improvement of cognitive abilities

## O=C1CCc2ccc(OCCCCN3CCN(c4cccc(Cl)c4Cl)CC3)cc2N1 [aripiprazole]
[1]
  affinity for 5-HT2B receptor (in words): high affinity
[2]
  affinity for 5-HT1A receptor (in words): high affinity
[3]
  functional character at serotonin 5-HT1A receptor: partial agonist
[4]
  effect on social behavior deficits: neither aripiprazole nor risperidone could improve
[5]; acute treatment
  effect on core behavioral deficits: without effect
[5]; chronic administration
  effect on core behavioral deficits: improved core behavioral deficits
ASD patients; open label trials
  lethargy/social withdrawal subscale of the Aberrant Behavioral Checklist: did not improve

## CN(C)C(=O)N[C@H]1CC[C@H](CCN2CCN(c3cccc(Cl)c3Cl)CC2)CC1 [cariprazine, trans-N-[4-[2-[4-(2,3-dichlorophenyl)piperazin-1-yl]ethyl]cyclohexyl]-N′,N′-dimethylurea]
Dopamine D2 receptor [6]
  functional character at dopamine D2 receptor: partial agonist
[7]
  functional character at serotonin 5-HT2B receptor: full antagonist
[3]
  functional character at serotonin 5-HT1A receptor: weak partial agonists
  intrinsic activity at serotonin 5-HT1A receptor: 38%

## O=C(N[C@H]1CC[C@H](CCN2CCN(c3cccc(Cl)c3Cl)CC2)CC1)N1CCOCC1 [Compound 2, trans-N-(4-{2-[4-(2,3-dichloro-phenyl)-piperazine-1-yl]-ethyl}-cyclohexyl)-morpholine-4 carboxamide]
Dopamine D2 receptor [8]
  functional character at dopamine D2 receptor: partial agonist
[9]
  functional character at serotonin 5-HT2B receptor: full antagonist
[10]
  functional character at serotonin 5-HT1A receptor: weak partial agonists

## Cc1nc2n(c(=O)c1CCN1CCC(c3noc4cc(F)ccc34)CC1)CCCC2 [risperidone]
Dopamine D2 receptors
  occupancy of dopamine D2 receptors: occupy dopamine D2 receptors
[4]
  effect on social behavior deficits: neither aripiprazole nor risperidone could improve
[5]; acute treatment
  effect on core behavioral deficits: without effect
[5]; chronic administration
  effect on core behavioral deficits: improved core behavioral deficits
ASD patients; children with pervasive developmental disorders with high baseline irritability
  effect on core symptoms: modest improvements
